Data reported in the supplement of paper PMC7108870.

Key:
HEK293sieSTAT3(Y640F) [1] = assay: drug sensitivity score (DSS), cytotoxicity CellTox Green (DSS (dimensionless)); higher = more cytotoxic; extreme values may be limits of the assay; conditions: 72 h; STAT3 variant: Y640F (constitutively active)
Method in brief: (§1)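 HEK293 cells carrying a STAT3-dependent luciferase reporter and overexpressing wild-type or mutant STAT3 (20 μl at 100,000 cells/ml) were added to compounds acoustically pre-plated at 5 concentrations in 10-fold dilutions in 384-well plates. After 72 hours at 37°C and 5% CO2, CellTox Green fluorescence (485/520 nm) and then CellTiter-Glo luminescence were read on a PHERAstar FS. Values were normalised to negative and positive control wells, and a drug sensitivity score based on dose-response curve area was computed in Breeze. Each value comes from one representative of two experiments.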

HEK293sieSTAT3(wt) [2] = assay: as above; conditions: 72 h; STAT3 variant: wild type
Method in brief: as §1

HEK293sieSTAT3(Y640F) [3] = assay: drug sensitivity score (DSS), viability CellTiter-Glo (DSS (dimensionless)); higher = more growth inhibition; extreme values may be limits of the assay; conditions: 72 h; STAT3 variant: Y640F (constitutively active)
Method in brief: as §1

HEK293sieSTAT3(wt) [4] = assay: as above; conditions: 72 h; STAT3 variant: wild type
Method in brief: as §1

| SMILES | drug sensitivity score (HEK293sieSTAT3(Y640F) [1]) | drug sensitivity score (HEK293sieSTAT3(wt) [2]) | drug sensitivity score (HEK293sieSTAT3(Y640F) [3]) | drug sensitivity score (HEK293sieSTAT3(wt) [4]) |
| --- | --- | --- | --- | --- |
| Cc1nc(Nc2n[nH]c3c2CN(C(=O)N[C@H](CN(C)C)c2ccccc2)C3(C)C)c2sccc2n1 (top concentration tested 10000 nM) | 0.9 | 34 | 19.3 | 32.7 |
| Cn1nccc1Nc1nccc(-c2ccn([C@H](CO)c3ccc(Cl)c(F)c3)c(=O)c2)n1 [GDC-0994] (top concentration tested 10000 nM) | 0 | 0 | 8.52 | 6.43 |
| O=P1(N(CCCl)CCCl)NCCCO1 (centres undefined) [Cyclophosphamide] (top concentration tested 40000 nM) | 0 | 0 | 0 | 0 |
| C/C(=C\c1csc(C)n1)[C@@H]1C[C@@H]2O[C@]2(C)CCC[C@H](C)[C@H](O)[C@@H](C)C(=O)C(C)(C)[C@@H](O)CC(=O)O1 [Patupilone] (top concentration tested 1000 nM) | 4.17 | 15.5 | 19.1 | 21.9 |
| C=C1C[C@@H]2[C@H](CC[C@]3(C)C(=O)CC[C@@H]23)[C@@]2(C)C=CC(=O)C=C12 [Exemestane] (top concentration tested 10000 nM) | 0 | 0 | 3.39 | 3.65 |
| CN1CCN(CCOc2cc(OC3CCOCC3)c3c(Nc4c(Cl)ccc5c4OCO5)ncnc3c2)CC1 [Saracatinib] (top concentration tested 10000 nM) | 1.77 | 9.4 | 7.28 | 6.87 |
| CC[C@H](C)C(=O)O[C@H]1C[C@H](O)C=C2C=C[C@H](C)[C@H](CC[C@@H](O)C[C@@H](O)CC(=O)O)[C@H]21 [Pravastatin] (top concentration tested 10000 nM) | 0.36 | 0 | 0 | 2.37 |
| Nc1cccc2c1CN(C1CCC(=O)NC1=O)C2=O (centres undefined) [Lenalidomide] (top concentration tested 100000 nM) | 0 | 0 | 2.66 | 2.72 |
| CC1CCC(n2c3cnccc3c3cnc(Nc4ccc5c(n4)CCN(C(=O)CO)C5)nc32)CC1 (centres undefined) [AMG-925] (top concentration tested 1000 nM) | 0 | 2.08 | 5.44 | 5.61 |
| O=C(Nc1cccc(Cl)c1)Nc1ncc(CCNc2ncnc3ccsc23)s1 [SNS-314] (top concentration tested 1000 nM) | 0 | 2.17 | 5.69 | 5 |
| Cc1c(NC(=O)OC[C@@H]2COCCN2)cn2ncnc(Nc3ccc4c(cnn4Cc4cccc(F)c4)c3)c12 (top concentration tested 10000 nM) | 0.83 | 6.8 | 2.59 | 6.6 |
| CNC(=O)c1ccc2cc([C@@]3(O)CCn4cncc43)ccc2c1 [Orteronel] (top concentration tested 10000 nM) | 0 | 0 | 0 | 0 |
| COc1cc(Nc2ncc(F)c(Nc3ccc4c(n3)NC(=O)C(C)(C)O4)n2)cc(OC)c1OC [Tamatinib] (top concentration tested 10000 nM) | 5.91 | 8.52 | 2.55 | 3.72 |
| CCNC(=O)C[C@@H]1N=C(c2ccc(Cl)cc2)c2cc(OC)ccc2-n2c(C)nnc21 (top concentration tested 10000 nM) | 0.87 | 5.42 | 9.51 | 4.81 |
| c1ccc2c(CCNc3ccc(Nc4ccncc4)cc3)c[nH]c2c1 [Serdemetan] (top concentration tested 10000 nM) | 0 | 1.74 | 5.06 | 7.89 |
| CC(C)C[C@H](NC(=O)[C@H](Cc1ccccc1)NC(=O)c1cnccn1)B(O)O [Bortezomib] (top concentration tested 1000 nM) | 30.6 | 31.7 | 29.8 | 32.5 |
| CO[C@H]1C[C@@H]2CC[C@@H](C)[C@@](O)(O2)C(=O)C(=O)N2CCCC[C@H]2C(=O)O[C@H]([C@H](C)C[C@@H]2CC[C@@H](OP(C)(C)=O)[C@H](OC)C2)CC(=O)[C@H](C)/C=C(\C)[C@@H](O)[C@@H](OC)C(=O)[C@H](C)C[C@H](C)/C=C/C=C/C=C/1C [Ridaforolimus] (top concentration tested 100 nM) | 0 | 0 | 8.94 | 13.9 |
| CO[C@H]1/C=C\C=C(/C)C(=O)NC2=CC(=O)C(NCCN(C)C)=C(C[C@@H](C)C[C@H](OC)[C@H](O)[C@@H](C)/C=C(\C)[C@@H]1OC(N)=O)C2=O [Alvespimycin] (top concentration tested 1000 nM) | 7.84 | 16.2 | 14.9 | 16.6 |
| CC[C@H](NC(=O)[C@H](C)NC)C(=O)N1C[C@@H](O)C[C@H]1Cc1c(-c2[nH]c3cc(F)ccc3c2C[C@@H]2C[C@H](O)CN2C(=O)[C@H](CC)NC(=O)[C@H](C)NC)[nH]c2cc(F)ccc12 [Birinapant] (top concentration tested 1000 nM) | 19.5 | 30.4 | 7.4 | 15.6 |
| CCN1CCN(c2ccc(Nc3cc(N(C)C(=O)Nc4c(Cl)c(OC)cc(OC)c4Cl)ncn3)cc2)CC1 [NVP-BGJ398] (top concentration tested 1000 nM) | 0 | 2.48 | 0.2 | 0 |
| Cc1cnc(-c2ccccc2C(C)C)nc1NCc1ccc(-n2ccnn2)cc1 [ML323] (top concentration tested 10000 nM) | 0 | 0 | 2.43 | 1.14 |

| SMILES | drug sensitivity score (HEK293sieSTAT3(Y640F) [1]) | drug sensitivity score (HEK293sieSTAT3(wt) [2]) | drug sensitivity score (HEK293sieSTAT3(Y640F) [3]) | drug sensitivity score (HEK293sieSTAT3(wt) [4]) |
| --- | --- | --- | --- | --- |
| C[C@@H](Oc1ccc2[nH]nc(/C=C/c3cnn(CCO)c3)c2c1)c1c(Cl)cncc1Cl (top concentration tested 1000 nM) | 0 | 0 | 6.64 | 5.39 |
| NC(=O)c1cccc(-c2cccc(OC(=O)NC3CCCCC3)c2)c1 [URB597] (top concentration tested 1000 nM) | 0 | 0 | 0.03 | 0.37 |
| CCC(C)n1ncn(-c2ccc(N3CCN(c4ccc(OCC5COC(Cn6cncn6)(c6ccc(Cl)cc6Cl)O5)cc4)CC3)cc2)c1=O (centres undefined) [Itraconazole] (top concentration tested 5000 nM) | 4.55 | 7.01 | 6.28 | 5.54 |
| O=C(CCCCCCNC(=O)c1cnc(N(c2ccccc2)c2ccccc2)nc1)NO [Rocilinostat] (top concentration tested 10000 nM) | 1.02 | 0.53 | 8 | 6.92 |
| CC1=C(/C=C/C(C)=C/C=C/C(C)=C/C(=O)O)C(C)(C)CCC1 [Tretinoin] (top concentration tested 10000 nM) | 0 | 0 | 0 | 0 |
| COc1cc2c(Oc3ccc4[nH]c(C)cc4c3F)ncnc2cc1OCCCN1CCCC1 [Cediranib] (top concentration tested 1000 nM) | 0 | 0.26 | 1.03 | 1.46 |
| C[C@H]1C[C@@H]2[C@H]([C@@H](O)C[C@@]3(C)[C@H]2CC[C@]3(O)C(=O)CO)[C@@]2(C)C=CC(=O)C=C12 [Methylprednisolone] (top concentration tested 10000 nM) | 0 | 0 | 2.04 | 1.52 |
| CNC(=O)c1cc(Oc2ccc(NC(=O)Nc3ccc(Cl)c(C(F)(F)F)c3)c(F)c2)ccn1 [Regorafenib] (top concentration tested 10000 nM) | 0 | 0 | 6.11 | 6.43 |
| CNC(=O)c1cc(COc2nnc(Nc3ccc(Cl)cc3)c3ccoc23)ccn1 [Telatinib] (top concentration tested 10000 nM) | 0 | 2.32 | 2.07 | 0 |
| COc1cc2ncnc(Nc3ccc(F)c(Cl)c3)c2cc1OCCCN1CCOCC1 [Gefitinib] (top concentration tested 10000 nM) | 0 | 1.5 | 1.88 | 3.96 |
| Cc1cccc(-c2nn3c(c2-c2ccnc4ccc(C(N)=O)cc24)CCC3)n1 [Galunisertib] (top concentration tested 1000 nM) | 1.47 | 0 | 0 | 0 |
| C=CCn1c(=O)c2cnc(Nc3ccc(N4CCN(C)CC4)cc3)nc2n1-c1cccc(C(C)(C)O)n1 [MK1775] (top concentration tested 10000 nM) | 10.6 | 16.5 | 20.4 | 19.4 |
| O=C(c1ccc(F)c(F)c1Nc1ccc(I)cc1F)N1CC(O)([C@@H]2CCCCN2)C1 [Cobimetinib] (top concentration tested 1000 nM) | 0 | 0 | 3.13 | 3.78 |
| Cc1nc(Nc2ncc(C(=O)Nc3c(C)cccc3Cl)s2)cc(N2CCN(CCO)CC2)n1 [Dasatinib] (top concentration tested 1000 nM) | 0 | 1.81 | 6.45 | 2.74 |
| Nc1cc(F)ccc1NC(=O)/C=C/c1cnn(C/C=C/c2ccccc2)c1 [RGFP966] (top concentration tested 10000 nM) | 0 | 0 | 5.46 | 6.28 |
| Cn1ncnc1[C@H]1c2n[nH]c(=O)c3cc(F)cc(c23)N[C@@H]1c1ccc(F)cc1 [Talazoparib] (top concentration tested 1000 nM) | 1.02 | 5.13 | 15.9 | 16 |
| CCn1c(-c2nonc2N)nc2cnc(Oc3cccc(NC(=O)c4ccc(OCCN5CCOCC5)cc4)c3)cc21 (top concentration tested 10000 nM) | 0.98 | 1.34 | 7.47 | 6.32 |
| CO[C@H](C(=O)[C@@H](O)[C@@H](C)O)[C@@H]1Cc2cc3cc(O[C@H]4C[C@@H](O[C@@H]5C[C@@H](O)[C@H](O)[C@@H](C)O5)[C@H](O)[C@@H](C)O4)c(C)c(O)c3c(O)c2C(=O)[C@H]1O[C@H]1C[C@@H](O[C@@H]2C[C@@H](O)[C@@H](O[C@@H]3C[C@](C)(O)[C@H](O)[C@@H](C)O3)[C@@H](C)O2)[C@H](O)[C@@H](C)O1 [Plicamycin] (top concentration tested 10000 nM) | 6.46 | 7.29 | 17.8 | 18.7 |
| COc1cc(OC)c(/C=C/S(=O)(=O)Cc2ccc(OC)c(NCC(=O)O)c2)c(OC)c1 [Rigosertib] (top concentration tested 10000 nM) | 6.71 | 18.7 | 21.8 | 21.9 |
| COc1ccc(-c2nc(N3CCOCC3)c3sc(CN(C)c4ncc(C(=O)NO)cn4)cc3n2)cn1 [CUDC-907] (top concentration tested 10000 nM) | 19.1 | 30.6 | 36.8 | 37.1 |
